Assay results: BindingDB's records for doi:10.1021/acs.jmedchem.8b01153 (2019)

Assays:
[1] = biological target: T1, Induced myeloid leukemia cell differentiation protein Mcl-1 (Homo sapiens, UniProt Q07820); test: Binding affinity to MCl-1 (unknown origin) assessed as dissociation rate constant for state one
[2] = biological target: T1, Induced myeloid leukemia cell differentiation protein Mcl-1; test: Binding affinity to MCl-1 (unknown origin) assessed as dissociation rate constant for state two

T1 sequence (Q07820 whole entry): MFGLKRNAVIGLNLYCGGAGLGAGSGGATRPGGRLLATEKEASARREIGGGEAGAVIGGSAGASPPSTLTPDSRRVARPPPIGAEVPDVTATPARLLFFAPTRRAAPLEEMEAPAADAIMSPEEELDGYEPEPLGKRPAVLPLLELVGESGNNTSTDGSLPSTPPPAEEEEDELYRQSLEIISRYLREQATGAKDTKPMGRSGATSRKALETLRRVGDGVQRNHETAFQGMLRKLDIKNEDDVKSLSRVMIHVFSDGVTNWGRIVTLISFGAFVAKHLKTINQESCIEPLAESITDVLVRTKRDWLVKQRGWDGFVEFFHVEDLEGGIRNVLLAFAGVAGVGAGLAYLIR

Structure (SMILES) | koff [1] [s⁻¹] | koff [2] [s⁻¹]
Cc1c(-c2cccc3c(CCCOc4cccc5ccccc45)c(C(=O)O)n(C)c23)c(COc2ccc(B(O)O)c(C=O)c2)nn1C [7-(3-((4-Borono-3-formylphenoxy)methyl)-1,5-dimethyl-1Hpyrazol-4-yl)-1-methyl-3-(3-(naphthalen-1-yloxy)propyl)-1H-indole-2-carboxylic acid, 11] | 0.13 | 0.01
Cc1c(-c2cccc3c(CCCOc4cccc5ccccc45)c(C(=O)O)[nH]c23)c(COc2ccc(B(O)O)c(C=O)c2)nn1C [7-(3-((4-Borono-3-formylphenoxy)methyl)-1,5-dimethyl-1Hpyrazol-4-yl)-3-(3-(naphthalen-1-yloxy)propyl)-1H-indole-2-carboxylic acid, 5] | 0.14 | 0.018
